The test system of one data set is 5-HT2C receptors. Conditions: in vivo; cited from earlier work.
Data set [1] has as its system rhesus monkeys responding for 0.032 mg/kg/inf cocaine. Conditions: cited from earlier work; for effectiveness on cocaine self-administration with daily dosing: administered daily for 10-14 days.
Data set [2] deals with rhesus monkeys, responding reinstated by cocaine. Nature of the data set: cocaine-primed reinstatement of extinguished responding for cocaine. The format is in vivo, rhesus monkey. Conditions: 0.32 mg/kg cocaine prime; 4 rhesus monkeys.
Procedure: Reinstatement of responding for cocaine.
Experimental design. Monkeys will respond for 0.032 mg/kg/inf cocaine under a FR30:TO180-sec schedule of reinforcement during daily 90-min sessions. During extinction, all stimulus lights will be extinguished with responding being recorded but having no scheduled consequence. During reinstatement tests, the drug-associated stimuli (i.e., the green and red stimulus lights) will be presented according to an FR30:TO180-sec schedule but no infusions will be delivered. Priming infusions of cocaine or saline will be injected directly into the vascular access port (followed by a 5-ml saline flush) 5 min before the start of the session.
The acute effects of lorcaserin (0.1-3.2 mg/kg; SC; 15 min PT) and buspirone (0.1-3.2 mg/kg; SC; 15 min PT) alone will be studied prior to evaluating mixtures. Because the nature of drug-drug interactions can vary depending upon the composition of the mixture, lorcaserin and buspirone will be evaluated over at least three fixed-dose pairs of at least three fixed-ratios (i.e., 3:1, 1:1, and 1:3), using the strategy described above. Mixtures will be based on the effects of lorcaserin and buspirone alone and customized to individual monkeys. […] Additional fixed-ratios mixtures (10:1 or 1:10) will be evaluated if significant, non-additive interactions are observed with either 3:1 or 1:3 ratios, respectively. […]
For data set [3], the target named is T1, DA D3 receptor (Homo sapiens, UniProt P35462). Conditions: cited from earlier work.
In data set [4] the target is T1, DA D3 receptor. Conditions: in vivo; cited from earlier work.
In data set [5] the test system is humans. Conditions: cited from earlier work.
Data set [6] has as its system rhesus monkeys responding for 0.032 mg/kg/inf cocaine. Nature of the data set: cocaine self-administration under a progressive ratio (PR) schedule. The format is in vivo, rhesus monkey. Conditions: for effect on PR responding for cocaine (reinforcing effectiveness of cocaine): 0.032 mg/kg/inf cocaine, 4 rhesus monkeys (2 male, 2 female), acute.
The conditions of data set [7]: e.g., valvulopathies; cited from earlier work.
Data set [8] deals with rhesus and cynomolgus monkeys. Conditions: in vivo; cited from earlier work.
In data set [9] the test system is humans. Conditions: cited from earlier work. The source holds these as a separate data set.
Data set [10] addresses T2, 5-HT2C over 5-HT2A receptors (Homo sapiens, UniProt P28335).
T2 construct: expressed in transfected cells
T2 sequence (P28335 33-458): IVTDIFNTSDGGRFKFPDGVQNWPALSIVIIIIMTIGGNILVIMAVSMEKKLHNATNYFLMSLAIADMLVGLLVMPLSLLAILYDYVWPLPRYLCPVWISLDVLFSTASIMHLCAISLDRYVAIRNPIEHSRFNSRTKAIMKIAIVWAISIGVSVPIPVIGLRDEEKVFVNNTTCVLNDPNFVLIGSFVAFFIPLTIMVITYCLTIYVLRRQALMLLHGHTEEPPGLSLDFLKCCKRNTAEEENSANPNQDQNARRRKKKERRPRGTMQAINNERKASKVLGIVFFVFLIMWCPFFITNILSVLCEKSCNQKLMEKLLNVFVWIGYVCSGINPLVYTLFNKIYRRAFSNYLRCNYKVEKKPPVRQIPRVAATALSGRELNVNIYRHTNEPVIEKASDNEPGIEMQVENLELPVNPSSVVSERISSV
Conditions: cited from earlier work.

The subject of a further data set is obese adults. Conditions: in vivo; cited from earlier work.
For data set [11], the target named is T3, 5-HT2C over 5-HT2B receptors (Homo sapiens, UniProt P28335).
T3 construct: expressed in transfected cells
T3 sequence (P28335 33-458): T2 sequence (P28335 33-458)
Conditions: cited from earlier work.

A further data set relates to recreational drug users. Conditions: 20-60 mg; cited from earlier work.
In another data set the test system is 5-HT2A receptor. Conditions: doses comparable to those required to reduce body weight in rats; cited from earlier work.
The mark [12] stands for this setting: functional assays, transfected cells.

These results are taken from patent US11207322B2, “Method and composition related to combination therapy for addiction” (Board of Regents, The University of Texas System, priority 2017, dated 2021).

“Also recorded” adds a separate entry of the source.

T1 sequence (P35462 whole entry): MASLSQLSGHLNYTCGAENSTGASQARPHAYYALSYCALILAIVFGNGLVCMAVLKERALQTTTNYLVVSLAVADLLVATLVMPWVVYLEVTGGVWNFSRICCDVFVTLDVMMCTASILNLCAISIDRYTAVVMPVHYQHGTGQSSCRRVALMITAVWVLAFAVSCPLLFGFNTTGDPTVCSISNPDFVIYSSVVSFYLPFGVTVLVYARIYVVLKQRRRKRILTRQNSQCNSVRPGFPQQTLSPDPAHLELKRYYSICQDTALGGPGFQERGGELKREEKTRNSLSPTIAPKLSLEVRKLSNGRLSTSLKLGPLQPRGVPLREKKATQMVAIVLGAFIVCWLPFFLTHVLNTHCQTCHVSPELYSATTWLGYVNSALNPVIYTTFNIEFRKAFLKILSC

Consider `Clc1cccc(COc2cncc(N3CCNCC3)n2)c1` [CP-809,101], for which the “cocaine self-administration and/or reinstatement” value in the data set with 5-HT2C receptors is reported as “decrease cocaine self-administration and/or inhibit the reinstatement of a response previously reinforced by cocaine”.

Regarding `Clc1cncc(N2CCNCC2)n1` [MK 212], in the data set on 5-HT2C receptors, the “cocaine self-administration and/or reinstatement” value is given as “decrease cocaine self-administration and/or inhibit the reinstatement of a response previously reinforced by cocaine”.

Regarding `C[C@H](N)Cn1ccc2cc(F)c(Cl)cc21` [Ro 60-0175], in the data set with 5-HT2C receptors, the “cocaine self-administration and/or reinstatement” value is “decrease cocaine self-administration and/or inhibit the reinstatement of a response previously reinforced by cocaine”.

Take `c1cc2c3c(c1)[C@H]1CCC[C@H]1N3CCNC2` [WAY-163909]: in the data set on 5-HT2C receptors, the “cocaine self-administration and/or reinstatement” value was “decrease cocaine self-administration and/or inhibit the reinstatement of a response previously reinforced by cocaine”.

On to `O=C1CC2(CCCC2)CC(=O)N1CCCCN1CCN(c2ncccn2)CC1` [buspirone], for which, in [1], the “effectiveness on cocaine self-administration with daily dosing” value is reported as “retain their effectiveness to reduce cocaine self-administration”. The “effectiveness of cocaine to reinstate extinguished responding for cocaine” value in [2] was “dose-dependently decreases”. The “selective binding profile at DA D3 receptors” value at DA D3 receptor [3] was 5-70 fold. On DA D3 receptor [3] (recent studies), the “relative potency at 5-HT1A, DA D3, and DA D4 receptors” value was “roughly equipotent”. Also, at DA D3 receptor [4], the “dose needed for clinically relevant DA D3 receptor occupancy relative to 60 mg maximal approved dose” value is “at least 3 fold”. Further, the “reinforcing effects of cocaine in a human laboratory study” value in the data set on humans [5] (30 mg) is “failed to alter the reinforcing effects of cocaine”. In data set [6], the “effect on PR responding for cocaine (reinforcing effectiveness of cocaine)” value is given as “inhibited responding in a dose-dependent manner; also recorded: dose-dependently decreases the reinforcing effectiveness of cocaine”. In [6] (PR schedule, 2 male and 2 female monkeys, more potent in males), the “potency in males relative to females at decreasing cocaine self-administration” value is on record as roughly 10 fold. The cardiovascular complications entry in data set [7] is recorded as “devoid of serious cardiovascular complications”. Also, the “cocaine self-administration in monkeys (literature)” value in [8] is given as “reliably decreased cocaine self-administration”. The “sex-related difference in promoting abstinence” value in the data set on humans [9] (60 mg dose) is recorded as “more effective at promoting abstinence in males than in females”. In the data set with humans [9] (60 mg), the “abstinence from cocaine use, multi-site randomized double-blind placebo-controlled pilot study” value is recorded as “failed to prolong abstinence from cocaine use”.

As to `CN1CCc2cc(Cl)c(O)cc2[C@H]2c3ccccc3CC[C@@H]21` [ecopipam], in the data set on humans [5] (doses that did not produce sedation), the “subjective or reinforcing effects of cocaine in humans” value is “failed to alter the subjective or reinforcing effects of cocaine”.

As to `C[C@@H](Cc1ccccc1)NC(=O)[C@@H](N)CCCCN` [lisdexamfetamine], the “cocaine self-administration in monkeys (literature)” value in data set [8] is listed as “consistently reduce cocaine self-administration”. Also, the “cocaine abstinence in a clinical setting” value in the data set on humans [9] (doses approved to treat ADHD) is “often ineffective at improving cocaine abstinence”.

Regarding `C[C@H]1CNCCc2ccc(Cl)cc21` [lorcaserin], the “selectivity for 5-HT2C over 5-HT2A receptors” value in [10] (setting [12]) was roughly 20 fold. Further, the “selectivity over the 5-HT2A receptor” value in data set [10] (in vitro testing) is recorded as 17 ×. The weight loss result with obese adults was “modest, but sustained weight loss”. Besides, the “selectivity for 5-HT2C over 5-HT2B receptors” value in data set [11] (setting [12]) is listed as roughly 100 fold. The “selectivity for (5-HT)2C versus 5-HT2B receptor” value in data set [11] (in vitro testing) was 100 ×. Further, the “cocaine self-administration under fixed ratio and PR schedules (earlier report of the inventors)” value in data set [1] (acute administration) is given as “dose-dependently inhibits cocaine self-administration”. Also, the “effectiveness on cocaine self-administration with daily dosing” value in [1] was “retain their effectiveness to reduce cocaine self-administration”. Besides, the “persistence of anti-cocaine effects” value in data set [1] (repeated (daily) treatment) was “at least 14 days”. For the same compound, the “subjective effects of supra-therapeutic doses” value with recreational drug users is “subjective ratings of “high”, “good drug effects” and “hallucination””. Also, in data set [2], the “effectiveness of cocaine to reinstate extinguished responding for cocaine” value is recorded as “dose-dependently decreases”. In the data set with 5-HT2A receptor, the head-twitches entry is given as “produces 5-HT2A receptor-mediated head-twitches”. Besides, in data set [6], the “effect on PR responding for cocaine (reinforcing effectiveness of cocaine)” value was “inhibited responding in a dose-dependent manner; also recorded: dose-dependently decreases the reinforcing effectiveness of cocaine”. The “sensitivity of females relative to males” value in data set [6] (PR schedule, 2 male and 2 female monkeys, females more sensitive) is listed as roughly 3 fold. In addition, the cardiovascular complications entry in data set [7] is given as “devoid of serious cardiovascular complications”.

`Clc1cccc(N2CCNCC2)c1` [mCPP, meta-chlorophenylpiperazine]: in the data set with 5-HT2C receptors, the “cocaine self-administration and/or reinstatement” value is reported as “decrease cocaine self-administration and/or inhibit the reinstatement of a response previously reinforced by cocaine”.
